# Experimental data: patent publication US6348445B1, “Biologically active peptides with reduced toxicity in animals and a method for preparing same” (priority 1992, dated 2002)
# Where no end group is shown, it is not given here.
# Key:
# [1] = system: E. coli ATCC strain 25922; test: Minimal Inhibitory Concentration, microtiter broth dilution; assay type: cell-based; settings: ATCC strain 25922
# Summary of the method: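 Broth microdilution per NCCLS M7-T2: final peptide levels 0.25 to 256 μg/ml (twofold steps), inoculum 1-5×10^5 CFUs/ml in full-strength Mueller Hinton broth. MIC read as lowest concentration leaving the well clear after 16-20 hours at 37° C.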
# S. aureus ATCC 29213 = assay type: cell-based; settings: ATCC 29213
# [2] = MTD and LD50, single intravenous administration; assay type: in vivo, mice
# Description: Determinations of a maximal tolerated dose (MTD) of a single intravenous (i.v.) administration or intraperitoneal (i.p.) administration of MSI-344 or MSI-1857 in 100 CD-1®BR mice were done. The MTD of a single intravenous (i.v.) administration was 10 mg/kg for MSI-344 and 60 mg/kg for MSI-1857. The MTD of a single intraperitoneal (i.p.) administration was less than 20 mg/kg for MSI-344 and between 50 and 100 mg/kg for MSI-1857.
# To determine estimates of MTDs and LD50s of MSI-344 and MSI-1857 administered intravenously or intraperitoneally as a single bolus in mice.
# A 5 mg/mL solution of MSI-344 was made in saline (0.9% sodium chloride injection USP, Abbott, North Chicago, Ill.) corrected for peptide content. Solutions of MSI-344 at concentrations of 4, 3, 2, 1.5, 1, and 0.5 mg/mL were made by diluting the 5 mg/mL solution using saline as diluent. (Errors were made in solution preparation of the 4, 3, and 2 mg/mL solutions and results from groups with animals doses with these solutions, i.e. groups 12, 13, and 14, were eliminated from study analysis). A 20 mg/mL solution of MSI-1857 was made in saline. Solutions of MSI-1857 at concentrations of 15, 10, 8, 6, and 5 mg/mL were made by diluting the 20 mg/mL solution using saline as diluent.
# Another 5 mg/mL solution of MSI-344 was made in saline corrected for peptide content. Solutions of 4, 3 and 2 mg/mL were made by diluting the 5 mg/mL solution using saline as diluent. A 15 mg/mL solution of MSI-1857 in saline was made corrected for peptide content. A 10 mg/mL solution was made by diluting the 15 mg/mL solution with saline.
# Mice (four mice per dose group) were intravenously or intraperitoneally administered a single bolus of MSI-344 or MSI-1857 using an injection volume of 10 mL/kg of the appropriate solution concentration. If the first two mice in a group died immediately (within 10 secs) after administration of a dose then no other mice injected with this dose of this compound (for ethical reasons). Survival was monitored daily for at least eight days post-administration. Study designs are presented in Tables IX and X. Toxicity Study # 262 was a supplement to Toxicity Study #261.
# [3] = Tox Study #261 group 2, 20 mg/kg IV, 2 injected
# [4] = Tox Study #261 group 3, 15 mg/kg IV, 2 injected
# [5] = Tox Study #261 group 4, 10 mg/kg IV, 4 injected
# [6] = Tox Study #261 group 5, 5 mg/kg IV, 4 injected
sequence,measurement,setting,value
GIGKFLKKAKKFGKAFVKILKK [MSI-344],MIC E. coli ATCC 25922,[1],8 µg/mL
same,MIC S. aureus ATCC 29213,S. aureus ATCC 29213,128 µg/mL
same,No. of Survivors Day 1,[2]; [3],0
same,No. of Survivors Day 2,[2]; [3],0
same,No. of Survivors Day 3,[2]; [3],0
same,No. of Survivors Day 4,[2]; [3],0
same,No. of Survivors Day 5,[2]; [3],0
same,No. of Survivors Day 6,[2]; [3],0
same,No. of Survivors Day 7,[2]; [3],0
same,No. of Survivors Day 8,[2]; [3],0
same,No. of Survivors Day 1,[2]; [4],0
same,No. of Survivors Day 2,[2]; [4],0
same,No. of Survivors Day 3,[2]; [4],0
same,No. of Survivors Day 4,[2]; [4],0
same,No. of Survivors Day 5,[2]; [4],0
same,No. of Survivors Day 6,[2]; [4],0
same,No. of Survivors Day 7,[2]; [4],0
same,No. of Survivors Day 8,[2]; [4],0
same,No. of Survivors Day 1,[2]; [5],4
same,No. of Survivors Day 2,[2]; [5],4
same,No. of Survivors Day 3,[2]; [5],4
same,No. of Survivors Day 4,[2]; [5],4
same,No. of Survivors Day 5,[2]; [5],4
same,No. of Survivors Day 6,[2]; [5],4
same,No. of Survivors Day 7,[2]; [5],4
same,No. of Survivors Day 8,[2]; [5],4
same,No. of Survivors Day 1,[2]; [6],4
same,No. of Survivors Day 2,[2]; [6],4
same,No. of Survivors Day 3,[2]; [6],4
same,No. of Survivors Day 4,[2]; [6],4
same,No. of Survivors Day 5,[2]; [6],4
same,No. of Survivors Day 6,[2]; [6],4
same,No. of Survivors Day 7,[2]; [6],4
same,No. of Survivors Day 8,[2]; [6],4
same,LD50,"[2]; mouse, in vivo, iv, CD-1 mice, estimated from dose response curves",12.5 mg/kg
same,MTD,"[2]; mouse, in vivo, iv, CD-1 mice, read-out: MTD of a single intravenous (i.v.) administration",10 mg/kg
